In ChEMBL document CHEMBL3046351, “Insecticidal, antifeedant and antifungal activities of two glucosides isolated from the seeds of Simmondsia chinensis” (Ind Crops Prod, 2007):
Converted amounts (≈) assume the structure as drawn.

Experiments:
Fusarium oxysporum = assay: Antifungal activity against Fusarium oxysporum by radial growth inhibition method; format: functional, organism-based
[1] = system: Globisporangium debaryanum; assay: Antifungal activity against Pythium debaryanum by radial growth inhibition method; format: functional, organism-based
Botrytis fabae = assay: Antifungal activity against Botrytis fabae by radial growth inhibition method; format: functional, organism-based
Rhizoctonia solani [2] = assay: Antifungal activity against Rhizoctonia solani by radial growth inhibition method; format: functional, organism-based
Spodoptera littoralis [3] = assay: Antifeedant activity against third instar larvae of Spodoptera littoralis fed on compound-treated cotton leaf disks assessed as antifeedant index at 100 ug/ml measured after 24 hr by no-choice leaf disc method; format: functional
Spodoptera littoralis [4] = assay: Antifeedant activity against third instar larvae of Spodoptera littoralis fed on compound-treated cotton leaf disks assessed as antifeedant index at 50 ug/ml measured after 24 hr by no-choice leaf disc method; format: functional
Spodoptera littoralis [5] = assay: Antifeedant activity against third instar larvae of Spodoptera littoralis fed on compound-treated cotton leaf disks assessed as antifeedant index at 10 ug/ml measured after 24 hr by no-choice leaf disc method; format: functional
Spodoptera littoralis [6] = assay: Insecticidal activity against third instar larvae of topically treated Spodoptera littoralis assessed per larva after 24 hr; format: functional
Spodoptera littoralis [7] = assay: Antifeedant activity against third instar larvae of Spodoptera littoralis fed on compound-treated castor bean leaf disks measured after 24 hr by no-choice leaf disc method
Spodoptera littoralis [8] = assay: Antifeedant activity against third instar larvae of Spodoptera littoralis fed on compound-treated castor bean leaf disks assessed as antifeedant index at 500 ug/ml measured after 24 hr by no-choice leaf disc method
Spodoptera littoralis [9] = assay: Antifeedant activity against third instar larvae of Spodoptera littoralis fed on compound-treated castor bean leaf disks assessed as antifeedant index at 1000 ug/ml measured after 24 hr by no-choice leaf disc method
Rhizoctonia solani [10] = assay: Antifungal activity against Rhizoctonia solani; format: functional, organism-based

| SMILES | EC50 (Fusarium oxysporum) [µg/mL] | EC50 [1] [µg/mL] | EC50 (Botrytis fabae) [µg/mL] | EC50 (Rhizoctonia solani [2]) [µg/mL] | LD50 (Spodoptera littoralis [6]) [µg] | EC50 (Rhizoctonia solani [10]) [µg/mL] | further results |
| --- | --- | --- | --- | --- | --- | --- | --- |
| COP(=S)(OC)Oc1c(Cl)cc(C)cc1Cl [TOLCOFOS-METHYL] | 51.3 (≈ 170 µM) | 8.9 (≈ 29.6 µM) | 21.9 (≈ 72.7 µM) | 5.7 (≈ 18.9 µM) |  |  |  |
| CO[C@H]1[C@@H](OC)C[C@@H](O[C@H]2O[C@@H](CO)[C@H](O)[C@@H](O)[C@@H]2O)/C(=C\C#N)[C@@H]1O [SIMMONDSIN] | 223 (≈ 595 µM) | 147 (≈ 391 µM) | 116 (≈ 310 µM) | 129 (≈ 344 µM) | 1.49 |  | AFI (Spodoptera littoralis [3]): 63.4%; AFI (Spodoptera littoralis [4]): 46.2%; AFI (Spodoptera littoralis [5]): 38.1%; Activity (Spodoptera littoralis [7]): Dose-dependent effect; AFI (Spodoptera littoralis [8]): 78.9%; AFI (Spodoptera littoralis [9]): 92.1% |
| O=C/C=C/c1ccccc1 [CINNAMALDEHYDE] |  |  |  |  |  | 169 (≈ 1280 µM) |  |
| C=C(C)C1CC=C(C)[C@@H](O)C1 (stereo partly drawn) [CARVEOL] |  |  |  |  |  | 92 (≈ 604 µM) |  |
| CC12CCC(CC1=O)C2(C)C (stereo not drawn) [CAMPHOR] |  |  |  |  |  | 488 (≈ 3210 µM) |  |
| CC1(C)C2CCC1(C)C(O)C2 (stereo not drawn) [BORNEOL] |  |  |  |  |  | 447 (≈ 2900 µM) |  |
| Cc1ccc(C(C)C)c(O)c1 [THYMOL] |  |  |  |  |  | 4 (≈ 26.6 µM) |  |
| Cc1ccc(C(C)C)cc1O [CARVACROL] |  |  |  |  |  | 41 (≈ 273 µM) |  |
| CCOP(=S)(OCC)Oc1nc(Cl)c(Cl)cc1Cl [CHLORPYRIFOS] |  |  |  |  | 0.12 |  |  |
| COc1cc(/C=C\C(=O)O[C@@H]2[C@@H](O[C@@H]3C[C@H](OC)[C@H](OC)[C@@H](O)/C3=C/C#N)O[C@@H](CO)[C@H](O)[C@H]2O)ccc1O [SIMMONDSIN 2'-FERULATE] | 293 (≈ 532 µM) | 154 (≈ 279 µM) | 146 (≈ 265 µM) | 146 (≈ 265 µM) | 2.58 |  | AFI (Spodoptera littoralis [3]): 60.9%; AFI (Spodoptera littoralis [4]): 44.2%; AFI (Spodoptera littoralis [5]): 32.3%; Activity (Spodoptera littoralis [7]): Dose-dependent effect; AFI (Spodoptera littoralis [8]): 76.9%; AFI (Spodoptera littoralis [9]): 90% |
